Data set [1] relates to progerin expression in progerin-transfected 293 cells. The data set is described as follows: Progerin expression analysis in progerin-transfected 293 cells (Western blot). It counts as cell-based. The conditions noted are these: 24 hours, FIG. 1D. On the procedure: HEK293 cell line, obtained from ATCC, were maintained in liquid medium (DMEM) containing 10% FBS and 1% antibiotics at 37° C.
Whole-cell lysates were prepared in RIPA.
15 μg of cell extracts were separated by SDS-PAGE and transferred onto a PVDF membrane.
The membrane was incubated for 1 h to overnight at 4° C. with primary antibody, followed by reaction with a secondary antibody at room temperature for 1 h.
Peroxidase activity was detected by chemiluminescence with ECL kit (Intron, Seoul, Korea) as recommended by its manufacturer.
Background: A western blot detects proteins with antibodies after separation by electrophoresis.

The nature of another data set: Plasma stability, rat. It counts as in vitro ADME.
The next data set is described as follows: Plasma stability, human. The class given is in vitro ADME.
The nature of data set [2]: Chemical pharmacokinetic (PK) analysis, blood/plasma concentration by LC-MS/MS. It counts as in vivo. The conditions noted are these: FIG. 2A. On the procedure: For PK analysis, 5 mg/kg of JH4 in 10% DMSO, 5% Tween […] solution was intravenously injected and 10 mg/kg of JH4 in 10% NMP and 90% PEG400 solution was per orally delivered. At the setting time-points, blood concentration of JH4 was determined by LC-MS/MS analysis and the PK analysis for other chemicals was also tested by the similar protocol.

The target in a further data set is CYP2D6 (Homo sapiens, UniProt P10635). The data set is described as follows: CYP inhibition CYP2D6. The class given is in vitro ADME.
CYP2D6, sequence (P10635 whole entry): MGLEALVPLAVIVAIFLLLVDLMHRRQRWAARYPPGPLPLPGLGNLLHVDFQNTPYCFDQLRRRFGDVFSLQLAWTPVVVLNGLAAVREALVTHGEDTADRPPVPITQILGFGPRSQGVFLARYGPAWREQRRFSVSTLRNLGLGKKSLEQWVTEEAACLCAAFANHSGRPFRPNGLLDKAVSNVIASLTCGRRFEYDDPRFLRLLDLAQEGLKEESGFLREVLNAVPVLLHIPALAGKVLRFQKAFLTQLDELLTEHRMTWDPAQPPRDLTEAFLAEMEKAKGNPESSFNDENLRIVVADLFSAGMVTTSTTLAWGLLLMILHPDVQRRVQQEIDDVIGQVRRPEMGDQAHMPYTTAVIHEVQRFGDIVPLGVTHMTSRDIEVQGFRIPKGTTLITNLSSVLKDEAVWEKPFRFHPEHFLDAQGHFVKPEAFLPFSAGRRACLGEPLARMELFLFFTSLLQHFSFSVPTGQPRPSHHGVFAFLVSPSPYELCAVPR

Molecules are shown by their SMILES. “Also recorded” adds a separate entry of the source.

Procedure for CYP2D6: In vitro ADME studies (plasma protein binding, CYP inhibition, microsomal stability, plasma stability and hERG inhibition) were performed by New drug development center though standard protocols.

On to `CC1(C)Oc2cc3oc(=O)ccc3cc2C[C@@H]1OC/C=C/c1ccccc1` [SLC-D011, (7S)-(+)-8,8-dimethyl-7-(3-phenyl-allyloxy)-7,8-dihydro-6H-pyrano[3,2-g]chromen-2-one], for which, in data set [1], the progerin expression result is on record as “inhibiting progerin expression; also recorded: obviously suppresses progerin expression”. In “Plasma stability, rat” (30 min), the “Plasma stability (% remaining) Rat 30 min” value was 83.6 % remaining. Besides, the “Plasma stability (% remaining) Rat 120 min” value in the data set “Plasma stability, rat” (120 min) is given as 75.1 % remaining. Besides, the “Plasma stability (% remaining) Human 30 min” value in “Plasma stability, human” (30 min) is recorded as greater than 100 % remaining. Moreover, the “Plasma stability (% remaining) Human 120 min” value in “Plasma stability, human” (120 min) is reported as greater than 100 % remaining. In addition, the bioavailability – broadly, dose-corrected exposure relative to a reference, in per cent – in data set [2] (blood, oral, PK analysis, read-out: bioavailability (B.A.)) was found to be 66%. The PK profile entry in data set [2] (in vivo PK analysis) was “proper PK profile”. In addition, the “CYP inhibition CYP2D6” value at CYP2D6 is listed as 91.7.

Source of the values: patent US11008332B2, “Pharmaceutical composition for preventing or treating aging-related diseases containing decursin derivative as active ingredient” (PRG S&TECH INC., priority 2017, dated 2021).
